Data: paper PMC11876671, “Investigating blood–brain barrier penetration and neurotoxicity of natural products for central nervous system drug development” (Scientific Reports, 2025)
Where a name gives a salt, the structure may show the parent alone.

assay: in vitro; conditions: PAMPA, PAMPA-BBB Pe

| Compound | Papp |
| --- | --- |
| COC(=O)[C@@H]1[C@H]2C[C@H]3c4[nH]c5ccccc5c4CCN3C[C@@H]2CC[C@@H]1O [YOHIMBINE] | 42 ×10⁻⁶ cm/s |

same assay, conditions: PAMPA, PAMPA-BBB Pe(10^-6 cm/sec)

| Compound | Papp |
| --- | --- |
| C[C@H]1C[C@H]2[C@@H]3CCC4=CC(=O)C=C[C@]4(C)[C@H]3C(=O)C[C@]2(C)[C@@]1(O)C(=O)CO [MEPREDNISONE] | 3.7 ×10⁻⁶ cm/s |
| COc1ccc(/C=C/C(=O)O)cc1OC [3,4-DIMETHOXYCINNAMIC ACID] | < 1 ×10⁻⁶ cm/s |
| Oc1ccc(O)cc1 [HYDROQUINONE] | < 1 ×10⁻⁶ cm/s |
| CC[C@]1(O)C[C@@H]2CN(CCc3c([nH]c4ccccc34)[C@@](C(=O)OC)(c3cc4c(cc3OC)N(C)[C@H]3[C@@](O)(C(=O)OC)[C@H](OC(C)=O)[C@]5(CC)C=CCN6CC[C@]43[C@@H]65)C2)C1 [VINBLASTINE] | 5.7 ×10⁻⁶ cm/s |
| Nc1nc(=O)[nH]c2c1ncn2[C@@H]1O[C@H](CO)[C@@H](O)[C@H]1O [ISOGUANOSINE] | < 1 ×10⁻⁶ cm/s |
| CN(C)[C@@H]1C(O)=C(C(N)=O)C(=O)[C@@]2(O)C(O)=C3C(=O)c4c(O)ccc(Cl)c4[C@@](C)(O)[C@H]3C[C@@H]12 [[…]] | < 1 ×10⁻⁶ cm/s |

same assay, conditions: PAMPA, PAMPA-BBB Pe(10^-6 cm/sec), Table S3: compounds exhibiting low PAMPA-BBB permeability

| Compound | Papp |
| --- | --- |
| O=C(/C=C/c1ccc(O)cc1)OC[C@H]1O[C@@H](Oc2c(-c3ccc(O)cc3)oc3cc(O)cc(O)c3c2=O)[C@H](O)[C@@H](O)[C@@H]1O [TILIROSIDE] | < 1 ×10⁻⁶ cm/s |
| Cc1cc(O)c(C=O)c2c1C(=O)Oc1c(C)c(O)c3c(c1O2)C(O)OC3=O (stereo not shown) [Norstictic acid] | 2 ×10⁻⁶ cm/s |
| C[C@@H]1O[C@@H](O[C@H]2[C@H](Oc3cc(O)c4c(=O)cc(-c5ccc(O)cc5)oc4c3)O[C@H](CO)[C@@H](O)[C@@H]2O)[C@H](O)[C@H](O)[C@H]1O [RHOIFOLIN] | < 1 ×10⁻⁶ cm/s |
| O=C(O)c1cc(N(Cc2ccccc2O)Cc2ccccc2O)ccc1O [L[…]] | 5.9 ×10⁻⁶ cm/s |
| Cc1ncc(CO)c(CO)c1O [[…]] | < 1 ×10⁻⁶ cm/s |
| O=C(O)Cc1ccc(O)c(O)c1 [DOPACETIC ACID] | < 1 ×10⁻⁶ cm/s |
| Nc1ccn([C@@H]2O[C@H](CO)[C@@H](OP(=O)(O)O)[C@H]2O)c(=O)n1 [3'-CMP] | < 1 ×10⁻⁶ cm/s |
| Cc1cccc2c3c(ccc12)C1=C(C(=O)C3=O)[C@@H](C)CO1 [DIHYDROTANSHINONE I] | 3.7 ×10⁻⁶ cm/s |
| O=C1/C(=C\c2ccc(O)c(O)c2)Oc2c1ccc(O[C@@H]1O[C@H](CO)[C@@H](O)[C@H](O)[C@H]1O)c2O [[…]] | 1 ×10⁻⁶ cm/s |
| CO[C@H]1/C=C/O[C@@]2(C)Oc3c(C)c(O)c4c(O)c(cc(O)c4c3C2=O)NC(=O)/C(C)=C\C=C\[C@H](C)[C@H](O)[C@@H](C)[C@@H](O)[C@@H](C)[C@H](OC(C)=O)[C@@H]1C [RIFAMYCIN] | < 1 ×10⁻⁶ cm/s |
| CC(=O)Nc1c2sscc-2n(C)c1=O [THIOLUTIN] | < 1 ×10⁻⁶ cm/s |
| CC(/C=C/C=C(\C)C(=O)O[C@@H]1O[C@H](CO[C@@H]2O[C@H](CO)[C@@H](O)[C@H](O)[C@H]2O)[C@@H](O)[C@H](O)[C@H]1O)=C\C=C\C=C(C)\C=C\C=C(/C)C(=O)O[C@@H]1O[C@H](CO[C@@H]2O[C@H](CO)[C@@H](O)[C@H](O)[C@H]2O)[C@@H](O)[C@H](O)[C@H]1O [CROCIN] | 6.1 ×10⁻⁶ cm/s |
| NCCC(=O)c1ccccc1N [KYNURAMINE] | 2.4 ×10⁻⁶ cm/s |
| COc1ccc([C@@H]2CC(=O)c3c(O)cc(O[C@@H]4O[C@H](CO)[C@@H](O)[C@H](O)[C@H]4O[C@@H]4O[C@@H](C)[C@H](O)[C@@H](O)[C@H]4O)cc3O2)cc1O [NEOHESPERIDIN] | < 1 ×10⁻⁶ cm/s |
| COc1cc(/C=C/C(=O)O)ccc1O [FERULIC ACID] | 1.2 ×10⁻⁶ cm/s |
| O=C(O)[C@H]1O[C@@H](Oc2cc3oc(-c4ccccc4)cc(=O)c3c(O)c2O)[C@H](O)[C@@H](O)[C@@H]1O [BAICALIN] | 1.3 ×10⁻⁶ cm/s |
| C[S+](CC[C@H](N)C(=O)[O-])C[C@H]1O[C@@H](n2cnc3c(N)ncnc32)[C@H](O)[C@@H]1O (stereo partly shown) [S-ADENOSYLMETHIONINE] | < 1 ×10⁻⁶ cm/s |
| O=C(O[C@@H]1Cc2c(O)cc(O)cc2O[C@H]1c1cc(O)c(O)c(O)c1)c1cc(O)c(O)c(O)c1 [GALLOCATECHIN GALLATE, (-)-] | < 1 ×10⁻⁶ cm/s |
| COc1ccc(C(=O)O)cc1OC [3,4-DIMETHOXYBENZOIC ACID] | < 1 ×10⁻⁶ cm/s |
| O=C(O)c1cc(O)c2c(c1)[C@@H]([C@H]1c3cc(C(=O)O)cc(O)c3C(=O)c3c(O[C@@H]4O[C@H](CO)[C@@H](O)[C@H](O)[C@H]4O)cccc31)c1cccc(O[C@@H]3O[C@H](CO)[C@@H](O)[C@H](O)[C@H]3O)c1C2=O [SENNOSIDE B] | 3 ×10⁻⁶ cm/s |
| CC(C)=CCC/C(C)=C/C=C/C(C)=C/C=C/C(C)=C/C=C/C=C(C)/C=C/C=C(C)/C=C/C=C(\C)CCC=C(C)C [LYCOPENE] | < 1 ×10⁻⁶ cm/s |
| NCCCS(=O)(=O)O [TR[…]] | 1.7 ×10⁻⁶ cm/s |
| C[C@H]([C@H](O)CCC(C)(C)O)[C@H]1CC[C@@]2(O)C3=CC(=O)[C@@H]4C[C@@H](O)[C@@H](O)C[C@]4(C)[C@H]3CC[C@]12C [ECDYSONE] | < 1 ×10⁻⁶ cm/s |
| COc1ccc2[nH]cc(CCNC(C)=O)c2c1 [MELATONIN] | 2.8 ×10⁻⁶ cm/s |
| CC(C)(COP(=O)(O)OP(=O)(O)OC[C@H]1O[C@@H](n2cnc3c(N)ncnc32)[C@H](O)[C@@H]1OP(=O)(O)O)[C@@H](O)C(=O)NCCC(=O)NCCS [COENZYME A] | < 1 ×10⁻⁶ cm/s |

| Compound | Papp |
| --- | --- |
| CC1=C[C@H](O)CC(C)(C)[C@H]1/C=C/C(C)=C/C=C/C(C)=C/C=C/C=C(C)/C=C/C=C(C)/C=C/C1=C(C)C[C@@H](O)CC1(C)C [XANTHOPHYLL] | 5 ×10⁻⁶ cm/s |
| COc1cc(-c2[o+]c3cc(O)cc(O)c3cc2O)cc(OC)c1O [MALVIDIN] | 1 ×10⁻⁶ cm/s |
| COc1ccc2cc3[n+](cc2c1OC)CCc1cc2c(cc1-3)OCO2 [BERBERINE HYDROCHLORIDE] | < 1 ×10⁻⁶ cm/s |
| CCNc1nc(N)nc(Cl)n1 | 1.1 ×10⁻⁶ cm/s |
| O=C(O)[C@H]1O[C@@H](Oc2c(-c3ccc(O)c(O)c3)oc3cc(O)cc(O)c3c2=O)[C@H](O)[C@@H](O)[C@@H]1O [QUERCITURONE] | 4.2 ×10⁻⁶ cm/s |
| CN(CCCC(=O)c1cccnc1)N=O | < 1 ×10⁻⁶ cm/s |
| O=C(/C=C/c1ccc(O)c(O)c1)O[C@@H]1C[C@@](OC(=O)/C=C/c2ccc(O)c(O)c2)(C(=O)O)C[C@@H](O)[C@@H]1O [CYNARINE] | < 1 ×10⁻⁶ cm/s |
| CC/C=C\CC1=C(C)CCC1=O [JASMONE] | < 1 ×10⁻⁶ cm/s |
| O=C/C=C/c1ccccc1 | < 1 ×10⁻⁶ cm/s |
| CC1=C(O)C(=O)[C@@H]2O[C@@H]2C1=O [TERREIC ACID] | 6.8 ×10⁻⁶ cm/s |
| O=C(O)c1ccc2c(c1)OCO2 [PIPERONYLIC ACID] | < 1 ×10⁻⁶ cm/s |
| O=C1c2c(O)cccc2[C@H]([C@@H]2O[C@H](CO)[C@@H](O)[C@H](O)[C@H]2O)c2cc(CO)cc(O)c21 [ALOIN A] | 5.4 ×10⁻⁶ cm/s |
| COc1cc(-c2coc3cc(O[C@@H]4O[C@H](CO)[C@@H](O)[C@H](O)[C@H]4O)c(OC)c(O)c3c2=O)cc(O)c1OC [IRIDIN] | 1.3 ×10⁻⁶ cm/s |
| O=C(O)c1ccccc1O [SALICYLIC ACID] | 1.8 ×10⁻⁶ cm/s |
| COc1ccc2[nH]cc(CC(=O)O)c2c1 [5-METHOXYIN[…]] | < 1 ×10⁻⁶ cm/s |
| Cn1cnc(N)c2ncnc1-2 [3-METHYL-6-AMINOPURINE] | < 1 ×10⁻⁶ cm/s |
| C=C1CC[C@H](O)C/C1=C/C=C1\CCC[C@]2(C)[C@@H]([C@H](C)CCCC(C)C)CC[C@@H]12 [CHOLECALCIFEROL] | < 1 ×10⁻⁶ cm/s |
| COc1ccc2c(c1OC)CN1CCc3cc4c(cc3[C@@H]1C2)OCO4 [CANADINE] | 5.5 ×10⁻⁶ cm/s |
| O=C1C[C@@H](c2ccc(O[C@@H]3O[C@H](CO)[C@@H](O)[C@H](O)[C@H]3O)cc2)Oc2cc(O)ccc21 [LIQUIRITIN] | < 1 ×10⁻⁶ cm/s |
| CCC(=O)c1c(O)cc(O)cc1O [FLOPROPIONE] | 2.8 ×10⁻⁶ cm/s |
| C[C@@H]1NCCc2cc(O)c(O)cc21 [SALSOLINOL] | < 1 ×10⁻⁶ cm/s |
| NCCc1c[nH]c2ccccc12 [TRYPTAMINE HYDROCHLORIDE] | < 1 ×10⁻⁶ cm/s |
| CN(Cc1nc2c(N)nc(N)nc2nc1O)c1ccc(C(=O)N[C@@H](CCC(=O)O)C(=O)O)cc1 [7-HYDROXYMETHOTREXATE] | < 1 ×10⁻⁶ cm/s |
| c1cncc([C@@H]2CCCN2)c1 [NORNICOTINE] | 8.4 ×10⁻⁶ cm/s |

same assay, conditions: PAMPA, PAMPA-BBB Pe, Table S2: compounds exhibiting moderate to high PAMPA-BBB permeability

| Compound | Papp |
| --- | --- |
| COC(=O)C1=CO[C@@H](C)[C@@H]2CN3CC[C@@]4(C(=O)Nc5ccccc54)[C@@H]3CC12 (stereo partly shown) [MITRAPHYLLINE] | 117 ×10⁻⁶ cm/s |
| COc1ccc(Cc2nccc3cc(OC)c(OC)cc23)cc1OC [PAPAVERINE HYDROCHLORIDE] | 165 ×10⁻⁶ cm/s |
| COc1ccc(C(C)=O)c(O)c1 [PAEONOL] | 146 ×10⁻⁶ cm/s |
| COC1=CC(=O)O[C@@H](/C=C/c2ccc3c(c2)OCO3)C1 [METHYSTICIN] | 104 ×10⁻⁶ cm/s |
| COc1ccc2c(c[n+](C)c3c4cc5c(cc4ccc23)OCO5)c1OC [CHELE[…]] | 95 ×10⁻⁶ cm/s |
| COc1cc2c(c(OC)c1OC)-c1c(cc(OC)c(OC)c1OC)C[C@H](C)[C@H](C)C2 [S[…]] | 171 ×10⁻⁶ cm/s |
| CC[C@H](C)[C@H]1O[C@]2(C=C[C@@H]1C)C[C@@H]1C[C@@H](C/C=C(\C)[C@@H](O[C@H]3C[C@H](OC)[C@@H](O[C@H]4C[C@H](OC)[C@@H](O)[C@H](C)O4)[C@H](C)O3)[C@@H](C)/C=C/C=C3\CO[C@@H]4[C@H](O)C(C)=C[C@@H](C(=O)O1)[C@]34O)O2 [ABAMECTIN B1A] | 35 ×10⁻⁶ cm/s |
| COc1cc2c(cc1O)C[C@H]1c3c(cc(O)c(OC)c3-2)CCN1C [BOLDINE] | 49 ×10⁻⁶ cm/s |
| O=c1ccc2ccccc2o1 [COUMARIN] | 74 ×10⁻⁶ cm/s |
| CNC(=O)Nc1ccc(Cl)c(Cl)c1 [3,4-DCPMU] | 115 ×10⁻⁶ cm/s |
| COc1ccc(/C=C/c2cc(O)cc(O)c2)cc1O [RHAPONTIN GENIN] | 70 ×10⁻⁶ cm/s |
| COC1=C[C@]23CCN(C)[C@H](Cc4ccc(OC)c(O)c42)C3=CC1=O [SALUTARIDINE] | 11 ×10⁻⁶ cm/s |
| Cc1ccc2c(c1)C(=O)c1ccccc1C2=O [.BETA.-METHYLANTHRAQUINONE] | 26 ×10⁻⁶ cm/s |
| CCC12C=CCN3CC[C@@]4(c5ccc(OC)cc5N(C)[C@H]4[C@@](O)(C(=O)OC)[C@@H]1OC(C)=O)[C@@H]32 (stereo partly shown) [VINDOLINE] | 92 ×10⁻⁶ cm/s |
| COc1cc(C)cc(O)c1 [3-HYDROXY-5-METHOXYTOLUENE] | 50 ×10⁻⁶ cm/s |
| COC(=O)C=Cc1ccccc1 [METHYL CINNAMATE] | 98 ×10⁻⁶ cm/s |
| CC(=O)/C=C/C1C(C)=CCC(C)C1(C)C (mixture of isomers) [DL-TRANS-.ALPHA.-IRONE] | 34 ×10⁻⁶ cm/s |
| COc1cc(-c2oc3cc(O)ccc3c(=O)c2O)ccc1O [GERALDOL] | 124 ×10⁻⁶ cm/s |
| CCOC(=O)/C=C/c1ccccc1 [ETHYL CINNAMATE] | 110 ×10⁻⁶ cm/s |
| COc1c2c(cc3c1OCO3)CCN(C)C2 [HYDROCOTARNINE HYDROBROMIDE] | 35 ×10⁻⁶ cm/s |
